# Legend:
# [1] = system: CYP2D6; experiment: CYP phenotyping cocktail clinical study: metoprolol/α-OH-metoprolol metabolic ratio and its association with PCB plasma levels; conditions: linear regression of MR AUC0–8 h α-OH-metoprolol/metoprolol (CYP2D6 activity) on PCB plasma concentration
# Description: The participants were ascertained not to have any acute disease by medical history, physical examination, laboratory screening, including hematological and biochemical blood tests, and a 12-lead electrocardiogram. […] The demographic data of the subjects are summarized in Table 1 in the supplemental data. At the enrollment visit, 2 blood samples (9 ml each) were collected into ethylenediaminetetraacetic acid (EDTA)-containing tubes taken from each subject for analyzing the plasma concentrations of PCB congeners and for pharmacogenetic analysis.
# Participants stayed fasted from the evening before until 3 h after drug administration. After that, a meal was provided. Water and juice were permitted but alcoholic and caffeinated beverages were not allowed from the evening before drug administration until the last blood sample was taken on the next day. Venous blood samples (9 ml each) were collected through an intravenous catheter immediately before and 0.25, 0.5, 0.75, 1, 1.5, 2, 2.5, 3, 4, 5, 6, 7, 8, and 24 h after drug administration. Blood was drawn into EDTA-coated tubes, centrifuged at 1500 g for 10 min at 4 °C, and plasma samples were subsequently stored at − 80 °C until further analysis. After completely voiding the bladder immediately before drug administration, the participants collected urine from 0 to 24 h after drug administration. After weighing the collected urine, a 10 ml aliquot of each fraction was taken.
# Commercially sourced standards and internal standards were used for quantification (see Supplemental Materials). In brief, 20 µl of the plasma samples were protein-precipitated with 80 µl methanol containing all internal standards or were treated for 16 h at 37 °C with 2 µl β-glucuronidase (1,000,000 Units) for deconjugation before protein precipitation with 78 µl methanol containing internal standards. Samples were centrifuged for 20 min, at 4 °C and 17,000 × g, and 40 µl of the supernatants were diluted with 40 µl LC–MS grade water, centrifuged again for 5 min at 4 °C and 17,000 × g and 50 µl supernatant were transferred to LC–MS vials 5 µl of the samples were injected into the LC–MS system.
# An Agilent 1290 Infinity II UHPLC coupled with a SCIEX QTRAP6500 + triple quadrupole mass spectrometer was used. Chromatographic separation was achieved on an Agilent Poroshell 120 EC-C18 (1.9 µm, 2.1 × 50 mm) column with A: 0.1% formic acid in water and B: methanol with a flow rate of 0.7 ml/min and a total run time of 8.5 min. Analytes were eluted using a gradient program. The following gradient steps represent gradual changes in % B over time: 5% B from 0 to 0.2 min, 30% B at 2 min, 34% B at 4.8 min, 95% B at 6.5 min, 95% B at 7.5 min and re-equilibrating to 5% B at 7.7 min and 5%B till 8.5 min. A representative chromatogram is shown in supplemental Fig. 2. The scheduled MRM mode was applied for analyte detection in both positive and negative ESI modes (Supplementary Table 4). Calibration curves were constructed with linear regression using weighted (1/x^2) models (detailed information in supplemental methods).
# Partial areas under the plasma concentration–time curves from 0 to 3 h (AUC0–3 h), from 0 to 4 h (AUC0–4 h), and from 0 to 8 h (AUC0–8 h) were calculated based on measured concentrations by the linear trapezoidal rule without extrapolation. […] Metabolic ratios (MR) were calculated by dividing the partial AUC of the metabolite by the respective partial AUC of the parent drug. The MRs were used as biomarkers for the individual CYP activities of the study subjects.
# [2] = Determination of PCB concentrations in plasma of HELPcB and control participants; assay type: in vivo; conditions: human plasma
# Description: The laboratory regularly participates in round robins for the determination of PCBs in plasma (www.g-equas.de).
# Plasma concentrations of PCB congeners were quantified in blood samples from all participants using gas chromatography/mass spectrometry (GC–MS) (Fig. 2A and Supplementary Table 2). A total of 19 PCB congeners were measured in control (n = 10) and HELPcB (n = 10) participants, with PCBs detected in all individuals. […] In the control group, PCB plasma concentrations primarily reflected background environmental exposure, such as dietary intake, representing the general population’s burden.
# [3] = molecular target: T1, HEK293 cells overexpressing CYP1A2 (Homo sapiens, UniProt P05177); experiment: CYP1A2 activity in transgenic HEK293 cells (phenacetin probe); assay type: cell-based; conditions: 0.1, 0.5, 1 µM PCB118, 30 min, then 10 µM phenacetin 1 h
# T1 construct: expressed in transfected cells; host or cells: HEK293
# T1 sequence (P05177 1-516): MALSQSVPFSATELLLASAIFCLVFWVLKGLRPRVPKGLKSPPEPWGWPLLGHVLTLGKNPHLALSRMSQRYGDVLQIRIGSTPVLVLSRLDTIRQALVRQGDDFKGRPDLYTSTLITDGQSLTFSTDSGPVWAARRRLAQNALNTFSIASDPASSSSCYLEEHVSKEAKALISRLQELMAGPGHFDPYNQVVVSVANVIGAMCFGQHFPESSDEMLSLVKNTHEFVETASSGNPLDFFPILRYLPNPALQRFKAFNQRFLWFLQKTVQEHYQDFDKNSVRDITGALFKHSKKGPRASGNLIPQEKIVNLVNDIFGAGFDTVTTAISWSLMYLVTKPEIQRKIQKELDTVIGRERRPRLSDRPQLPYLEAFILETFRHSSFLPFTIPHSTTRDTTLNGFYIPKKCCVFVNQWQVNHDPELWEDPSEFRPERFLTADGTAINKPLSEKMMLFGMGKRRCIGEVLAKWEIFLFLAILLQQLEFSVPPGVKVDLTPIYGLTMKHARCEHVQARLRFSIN
structure (smiles),measurement,setting,value
Clc1ccc(-c2cc(Cl)c(Cl)cc2Cl)cc1Cl [PCB118],t value,[1],"2,169"
same,β (standardized regression coefficient),[1],"0,455"
same,"PCB plasma concentration, Mean [±SD] HELPcB",[2]; HELPcB (occupationally exposed) group,0.122 ± 0.122 ng/mL
same,"PCB plasma concentration, Geometric mean, HELPcB","[2]; HELPcB group, N 10",0.075 ng/mL
same,"PCB plasma concentration, Mean [±SD] all",[2]; all participants,0.072 ± 0.099 ng/mL
same,"PCB plasma concentration, Mean [±SD] control",[2]; control group (background exposure),0.022 ± 0.012 ng/mL
same,"PCB plasma concentration, Geometric mean, Control","[2]; control group, N 10",0.019 ng/mL
same,effect on CYP1A2 activity in HEK293 cells (phenacetin probe),[3],significantly inhibited CYP1A2 activity in a dose-dependent manner
